Among the data in patent publication US20170128518A1, “METHODS AND MATERIALS FOR IDENTIFYING AND TREATING MAMMALS RESISTANT TO PROTEASOME INHIBITOR TREATMENTS” (Mayo Foundation for Medical Education and Research, priority 2014, published 2017) are IC50 and caspase-like proteasomal activity values, retold here.

In one test the test system is RPCI-WM1/BR. Nature of the test: MTS viability assay, RPCI-WM1/BR. The class given is cell-based, human. To be noted: 72-h MTS assay. As for the experimental part: (§1) Twenty thousand cells/200 μl in quadruplicates were incubated with serially diluted b-AP15 (1-1000 nmol/l) in 96-well plates at 37° C. for 72 hours. MTS (3-(4,5-dimethylthiazol-2-yl)-5-(3-carboxymethoxyphenyl)-2-(4-sulfophenyl)-2H-tetrazolium) reagent (Molecular Probes, Eugene, Oreg.) was added at 40 μl/well and the plates were further incubated at 37° C. for 3 hours and the developed color was read at 490 nm using a BioTek synergy HT plate reader against blanks with no cells.

Test [1] concerns the target T1, proteasome b1 subunit (caspase-like activity) (Homo sapiens, UniProt P28072).
T1 construct: Cells were lysed at 4×10^6 cells/ml in proteasomal activity assay buffer; endogenous in cells; host or cells: BCWM.1 and BCWM.1/BR (lysates)
Nature of the test: Proteasomal activity assay, caspase-like (LLE-AMC), WM cells. Type of test: biochemical. The following applies: 10 nM; BCWM.1 and BCWM.1/BR shown. On the procedure:
FIGS. 17A-17D are a series of graphs plotting the effects of bortezomib (10 nM), carfilzomib (10 nM) and b-AP15 (10 nM) on caspase-like and trypsin-like proteasomal activities, as assessed in three WT and three BR WM cell lines in vitro using the fluorogenic substrates LLE-AMC (caspase-like activity) and LRR-AMC (trypsin-like activity). Reactions were incubated at 37° C. for 1 hour and the fluorescence was measured at 360/460 and expressed as relative fluorescence units (RFU), using BioTek synergy HT plate reader. Data from two representative cell lines (BCWM.1 and its BR subclone) are shown.
Cells were lysed at 4×10^6 cells/ml in proteasomal activity assay buffer [assay buffer; 25 mmol/1 HEPES buffer, pH7.5 containing 0.5 mmol/1 EDTA, 0.05% Nonidet P-40, 0.01% sodium dodecyl sulfate (SDS)] and immediately used in the assay. Enzyme reactions were performed in 96-well plates with 100 μl of final volume containing […] fluorogenic peptide substrates. The substrates used were LLVY-AMC for chymotrypsin like activity, LLE-AMC for caspase-like activity and LRR-AMC for trypsin-like activity. Reactions were incubated at 37° C. for 1 hour and fluorescence was measured at 360/460 using a BioTek synergy HT plate reader (BioTek, Winooski, Vt.).

A further test has as its system MWCL-1/BR. Nature of the test: MTS viability assay, MWCL-1/BR. The class given is cell-based, human. The following applies: 72-h MTS assay, MWCL-1B/BR. On the procedure:
as §1
On the technique in general: Formazan colour is commonly taken as a measure of viable cells.

T1 sequence (P28072 whole entry): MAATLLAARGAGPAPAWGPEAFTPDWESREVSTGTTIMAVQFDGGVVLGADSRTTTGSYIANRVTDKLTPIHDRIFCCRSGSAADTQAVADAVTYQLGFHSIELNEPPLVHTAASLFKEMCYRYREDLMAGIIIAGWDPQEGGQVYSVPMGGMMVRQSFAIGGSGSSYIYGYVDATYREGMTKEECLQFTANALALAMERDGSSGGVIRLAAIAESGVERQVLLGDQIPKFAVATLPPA

One may read the IC50 as the midpoint of a concentration-inhibition curve. On to `C=CC(=O)N1C/C(=C\c2ccc([N+](=O)[O-])cc2)C(=O)/C(=C/c2ccc([N+](=O)[O-])cc2)C1` [b-AP15], for which the IC50 with RPCI-WM1/BR was 57 nM; with MWCL-1/BR, 3 nM. The caspase-like proteasomal activity result in test [1] was “no change in caspase-like activity”.
